Results as given in US9079870B2, “Thiol mediated/activated prodrugs of sulfur dioxide (SO2) having anti-bacterial activity” (priority 2012, dated 2015).
≈ marks a conversion by molar mass, not a printed value. Where “and” joins values, the source holds several entries; their conditions need not be identical. Equal values may be shown once. Read-outs that look alike come from different tables or passages of the source.

Tests used:
S. aureus ATCC 29213 = experiment: Antibacterial activity (MIC) against S. aureus; assay type: cell-based
Source text: (§1) The antibacterial activity of thiol mediated/activated prodrugs of SO2 i.e. 2,4-dinitrophenylsulfonamide related compounds against the gram positive pathogenic bacteria selected from the group S. aureus, E. feacalis is given herein below Table 2a.

E. feacalis ATCC 29212 = experiment: Antibacterial activity (MIC) against E. feacalis; assay type: cell-based
Source text: as §1

[1] = system: Mycobacterium tuberculosis H37Rv strain; experiment: Antimycobacterial activity assay (MIC, 7H11 agar); assay type: cell-based; details: Mtb H37Rv
[2] = Cysteine-activated sulfur dioxide release, ion chromatography analysis of sulfite; details: for SO2 yield, 5 min: 5 min after treatment of compound (100 1M) with 10 equiv of cysteine in pH 7.4 phosphate buffer; for K (min−1), rate of sulfite release: compound (100 μM), cysteine (10 equiv), pH 7.4 phosphate buffer (20 mM); for Max SO2 yield: sum of sulfite and sulfate, compound 100 μM, cysteine 10 equiv; for Max SO2 yield / SO2 yield in 30 min (%): pH 7.4; for % SO2 (30 min): 30 min after commencement of the reaction with thiol, per mole of compound; for SO2 yield in 30 min (%): 30 min after commencement of the reaction with cysteine (10 equiv)
[3] = Pararosaniline-based colorimetric assay for sulfur dioxide; assay type: physicochemical; details: detected with pararosaniline-based colorimetric assay; 10 equiv cysteine, pH 7.4
[4] = Table 4; values are for the amine without a DNs group; cited from earlier work
[5] = 100 µM, pH 7.4
[6] = system: human embryonic kidney 293 cells (HEK); experiment: Cell viability assay
[7] = Staphylococcus aureus, ATCC29213; read-out: MIC (μg/mL) S. aureus ATCC 29213
[8] = Enterococcus faecalis, ATCC29212; read-out: MIC (μg/mL) E. feacalis ATCC 29212
[9] = Mycobacterium tuberculosis, H37RV, Table 2b
[10] = Mycobacterium tuberculosis, H37RV, Table 2b, inhibit 99% of bacterial growth
[11] = 30 min after treatment of compound (100 1M) with 10 equiv of cysteine in pH 7.4 phosphate buffer
[12] = Table 3, 30 min after treatment of compound (100 μM) with 10 equiv of cysteine in pH 7.4 phosphate buffer
[13] = Mycobacterium tuberculosis, H37RV, 672 h, Table 3, inhibit 99% of bacterial growth
[14] = Mycobacterium tuberculosis, H37RV, Table 3
[15] = Mycobacterium tuberculosis, H37RV, Table 3, inhibit 99% of bacterial growth
[16] = Mycobacterium tuberculosis, H37RV, 672 h, Table 3, inhibit 99% of bacterial growth, read-out: MIC

## O=[N+]([O-])c1ccc(S(=O)(=O)Nc2ccc(F)cc2)c([N+](=O)[O-])c1 [Compound 10, N-(4-fluorophenyl) 2,4-dinitrophenylsulfonamide]
S. aureus ATCC 29213; [7]
  MIC: 16 µg/mL (≈ 46.9 µM)
E. feacalis ATCC 29212; [8]
  MIC: > 16 µg/mL
[1]; [9]
  MIC: 18.3 µM
[1]; [10]
  MIC: 6.25 µg/mL
[2]
  SO2 yield, 5 min: 18 µM
[2]; [11]
  SO2 yield, 30 min: 55 µM

## CCCN(Cc1ccccc1)S(=O)(=O)c1ccc([N+](=O)[O-])cc1[N+](=O)[O-] [Compound 16, (N-benzyl, N-propyl) 2,4-dinitrophenylsulfonamide]
[1]; Table 2b, read-out: MIC
  MIC: 8.25 µM
[1]; Table 3, read-out: MIC
  MIC: 8.25 µM
[3]
  SO2 source: yes
[4]
  pKaH: 9.68
[2]
  SO2 yield, 5 min: 68 µM
  K (min−1), rate of sulfite release: 0.1517 min⁻¹
  Max SO2 yield: 96 µM
[2]; [11]
  SO2 yield, 30 min: 96 µM
[2]; [12]
  SO2 yield, 30 min: 96 µM

## CN(Cc1ccccc1)S(=O)(=O)c1ccc([N+](=O)[O-])cc1[N+](=O)[O-] [Compound 15, (N-benzyl, N-methyl) 2,4-dinitrophenylsulfonamide]
S. aureus ATCC 29213; [7]
  MIC: 8 µg/mL (≈ 22.8 µM)
E. feacalis ATCC 29212; [8]
  MIC: > 16 µg/mL
[1]; [13]
  MIC: ≤ 25 µg/mL
[1]; [9]
  MIC: 1.1 µM
[1]; [10]
  MIC: 0.4 µg/mL
[1]; [14]
  MIC: 1.1 µM
[1]; [15]
  MIC: 0.4 µg/mL
[1]; Mycobacterium tuberculosis, H37RV, text to Table 2b
  MIC: < 1000 µg/mL
[3]
  SO2 source: yes
[5]
  t1/2 (min) of SO2 generation: 4 min
[5]; buffer
  t1/2 (min) of SO2 generation: ~4 g·min
[4]
  pKaH: 9.58
[2]
  SO2 yield, 5 min: 79 µM
  Max SO2 yield: 100 µM
[2]; [11]
  SO2 yield, 30 min: 100 µM
[2]; [12]
  SO2 yield, 30 min: 100 µM

## O=[N+]([O-])c1ccc(S(=O)(=O)N2CCCCC2)c([N+](=O)[O-])c1 [Compound 24, 1-[(2,4-dinitrophenyl)sulfonyl]piperidine]
S. aureus ATCC 29213; Staphylococcus aureus, ATCC29213, read-out: MIC (μg/mL) S. aureus ATCC 29213
  MIC: 4 µg/mL (≈ 12.7 µM)
E. feacalis ATCC 29212; Enterococcus faecalis, ATCC29212, read-out: MIC (μg/mL) E. feacalis ATCC 29212
  MIC: > 16 µg/mL
[1]; [16]
  MIC: ≤ 25 µg/mL
[1]; [14]
  MIC: 2.5 µM
[1]; [15]
  MIC: 0.78 µg/mL
[3]
  SO2 source: yes
other
  melting point: 138 °C
[2]; [12]
  SO2 yield, 30 min: 91 µM

## O=[N+]([O-])c1ccc(S(=O)(=O)N(CCCN(c2ccccc2F)S(=O)(=O)c2ccc([N+](=O)[O-])cc2[N+](=O)[O-])Cc2ccccc2)c([N+](=O)[O-])c1 [Compound 39, N-benzyl-N-(3-(N-(2-fluorophenyl)-2,4-dinitrophenylsulfonamido)propyl)-2,4-dinitrobenzenesulfonamide]
other
  melting point: 151 to 153 °C
[2]
  % SO2 (30 min): 141%

## O=[N+]([O-])c1ccc(S(=O)(=O)Nc2ccccc2)c([N+](=O)[O-])c1 [Compound 6, N-phenyl, 2,4-dinitrophenylsulfonamide]
[1]; [13]
  MIC: ≤ 25 µg/mL
[1]; [9]
  MIC: 9.69 µM
[1]; [10]
  MIC: 3.13 µg/mL
[1]; [14]
  MIC: 9.7 µM
[1]; [15]
  MIC: 3.13 µg/mL
[3]
  SO2 source: yes
[5]; buffer
  t1/2 (min) of SO2 generation: 25 min
[4]
  pKaH: 4.64
[2]
  SO2 yield, 5 min: 37 µM
  SO2 yield in 30 min (%): 55%
  K (min−1), rate of sulfite release: 0.0273 min⁻¹
  Max SO2 yield: 94 µM
[2]; [11]
  SO2 yield, 30 min: 55 µM
[2]; [12]
  SO2 yield, 30 min: 55 µM

## COc1ccc(N(CCCN(Cc2ccccc2)S(=O)(=O)c2ccc([N+](=O)[O-])cc2[N+](=O)[O-])S(=O)(=O)c2ccc([N+](=O)[O-])cc2[N+](=O)[O-])cc1 [Compound 37, N-benzyl-N-(3-(N-(4-methoxyphenyl)-2,4-dinitrophenylsulfonamido)propyl)-2,4-dinitrobenzenesulfonamide]
other
  melting point: 118 to 120 °C
[2]
  % SO2 (30 min): 183%

## O=[N+]([O-])c1ccc(S(=O)(=O)NCc2ccccc2)c([N+](=O)[O-])c1 [Compound 1, N-benzyl-2,4-dinitrophenylsulfonamide]
S. aureus ATCC 29213; [7]
  MIC: > 16 µg/mL
E. feacalis ATCC 29212; [8]
  MIC: > 16 µg/mL
[1]; [13]
  MIC: ≤ 25 µg/mL
[1]; [9]
  MIC: 0.15 µM
[1]; [10]
  MIC: ~0.05 µg/mL
[1]; [14]
  MIC: 0.15 µM
[1]; [15]
  MIC: 0.05 µg/mL
[3]
  SO2 source: yes
[5]
  t1/2 (min) of SO2 generation: ~2 min
[5]; buffer
  t1/2 (min) of SO2 generation: ~2 g·min
[4]
  pKaH: 9.34
[6]; Homo sapiens, HEK293, read-out: IC50, cell viability
  IC50: 7 µM
[6]; based on the MIC and IC50
  selectivity (SI) toward Mtb over human embryonic kidney cells: ~50 and 47
[2]
  SO2 yield, 5 min: 83 µM
  SO2 yield in 30 min (%): ~100%
  Max SO2 yield: 100 µM
[2]; [11]
  SO2 yield, 30 min: 100 µM
[2]; [12]
  SO2 yield, 30 min: 100 µM

## COc1ccc(CNS(=O)(=O)c2ccc([N+](=O)[O-])cc2[N+](=O)[O-])cc1 [Compound 2, N-(4-methoxybenzyl)2,4-dinitrophenylsulfonamide]
S. aureus ATCC 29213; [7]
  MIC: > 16 µg/mL
E. feacalis ATCC 29212; [8]
  MIC: > 16 µg/mL
[1]; [9]
  MIC: 0.68 µM
[1]; [10]
  MIC: 0.25 µg/mL
[2]
  SO2 yield, 5 min: 74 µM
[2]; [11]
  SO2 yield, 30 min: 84 µM

## O=[N+]([O-])c1ccc(S(=O)(=O)Nc2cccc(F)c2)c([N+](=O)[O-])c1 [Compound 9, N-(3-fluorophenyl) 2,4-dinitrophenylsulfonamide]
[1]; Table 2b, read-out: MIC
  MIC: 73 µM
[1]; Table 3, read-out: MIC
  MIC: 73 µM
[3]
  SO2 source: yes
[4]
  pKaH: 3.38
[2]
  SO2 yield, 5 min: 5 µM
  K (min−1), rate of sulfite release: 0.0106 min⁻¹
  Max SO2 yield: 86 µM
[2]; [11]
  SO2 yield, 30 min: 24 µM
[2]; [12]
  SO2 yield, 30 min: 24 µM

## O=[N+]([O-])c1ccc(S(=O)(=O)N2CCOCC2)c([N+](=O)[O-])c1 [Compound 23, 4-[(2,4-dinitrophenyl)sulfonyl]morpholine]
[1]; [16]
  MIC: ≤ 25 µg/mL
[1]; [14]
  MIC: 19.6 µM
[1]; [15]
  MIC: 6.25 µg/mL
[3]
  SO2 source: yes
other
  melting point: 144 to 145 °C
[2]; [12]
  SO2 yield, 30 min: 96 µM

## N#Cc1ccc(NS(=O)(=O)c2ccc([N+](=O)[O-])cc2[N+](=O)[O-])cc1 [Compound 11, N-(4-cyanophenyl) 2,4-dinitrophenylsulfonamide]
S. aureus ATCC 29213; [7]
  MIC: > 16 µg/mL
E. feacalis ATCC 29212; [8]
  MIC: > 16 µg/mL
[1]; [9]
  MIC: > 100 µM
[1]; [10]
  MIC: > 50 µg/mL
[2]
  SO2 yield, 5 min: 6 µM
  SO2 yield in 30 min (%): 5%
[2]; [11]
  SO2 yield, 30 min: 5 µM

## COc1cccc(N(CCCN(Cc2ccccc2)S(=O)(=O)c2ccc([N+](=O)[O-])cc2[N+](=O)[O-])S(=O)(=O)c2ccc([N+](=O)[O-])cc2[N+](=O)[O-])c1 [Compound 36, N-benzyl-N-(3-(N-(3-methoxyphenyl)-2,4-dinitrophenylsulfonamido)propyl)-2,4-dinitrobenzenesulfonamide]
other
  melting point: 108 to 110 °C
[2]
  % SO2 (30 min): 184%

## O=[N+]([O-])c1ccc(S(=O)(=O)N(CCCN(c2ccccc2)S(=O)(=O)c2ccc([N+](=O)[O-])cc2[N+](=O)[O-])Cc2ccccc2)c([N+](=O)[O-])c1 [Compound 38, N-benzyl-N-(3-(2,4-dinitro-(N-phenyl)phenylsulfonamido)propyl)-2,4 dinitro benzene sulfonamide]
other
  melting point: 151 to 153 °C
[2]
  % SO2 (30 min): 160%

## O=[N+]([O-])c1ccc(S(=O)(=O)N(CCCN(Cc2ccccc2)S(=O)(=O)c2ccc([N+](=O)[O-])cc2[N+](=O)[O-])Cc2ccccc2)c([N+](=O)[O-])c1 [Compound 34, N,N′-(propane-1,3-diyl)bis(N-benzyl-2,4-dinitrobenzenesulfonamide)]
other
  melting point: 186 to 189 °C
[2]
  % SO2 (30 min): 152%
